Results as given in patent publication US6969702B2, “Compounds and methods for increasing neurogenesis” (priority 2002, dated 2005).
Marks after values point to notes of the source that are not given here. Bridge positions count the residues as written; N and C are the ends. Square brackets hold non-standard residues; d marks the D form. Ends that are not written are not given here. Peptide text beside a SMILES is read from it. d(pGlu) = O=C1CC[C@H](C(=O)O)N1

What was measured:
Adult neural stem cells = test: Flow cytometry for early neuronal marker Doublecortin; settings: for % Doublecortin-positive cells / Fold Induction (Doublecortin-positive cells): Table 6; for % Doublecortin-positive cells: 4 days; for Fold Induction (Doublecortin-positive cells): vs EGF/FGF
[1] = tested on: cAMP activation in mouse adult neural stem cells; test: cAMP detection (HitHunter EFC Cyclic AMP Chemiluminescence Assay); settings: for Fold Induction cAMP: vs vehicle
[2] = tested on: mouse adult neural stem cells; test: ATP-assay: proliferation (ATP levels) of neurosphere-derived cells; settings: for Fold Induction ATP: vs vehicle
[3] = Table 2, 10 nM (cAMP concentration)
[4] = Table 2, 100 nM (cAMP concentration)
[5] = Table 2, 1 nM (cAMP concentration)

Compound | % Doublecortin-positive cells (Adult neural stem cells; 100 nM) | Fold Induction (Doublecortin-positive cells) (Adult neural stem cells; 100 nM) | cAMP (pmol/well) [1, 3] | ATP (nM ATP/well) ([2]; Table 2, 100 nM, 4 days) | Fold Induction ATP ([2]; Table 2, 100 nM, 4 days) | cAMP (pmol/well) [1, 5] | also measured
CSCC[C@@H]1NC(=O)[C@H](C)NC(=O)[C@H]([C@@H](C)O)NC(=O)CNC(=O)[C@H](CC(C)C)NC(=O)[C@H](CCCCN)NC(=O)[C@H](CCCNC(=N)N)NC(=O)[C@@H]2CSSC[C@@H]3NC(=O)[C@@H]4CCCN4C(=O)[C@H](C(C)C)NC(=O)[C@H](CCC(N)=O)NC(=O)[C@H](CCC(N)=O)NC(=O)CNC(=O)[C@H](CC(C)C)NC(=O)[C@@H]4CSSC[C@H](NC(=O)[C@H]([C@@H](C)O)NC(=O)[C@H](C)NC(=O)[C@H](CSSC[C@@H](C(=O)N[C@@H](CO)C(=O)N[C@@H](CCCNC(=N)N)C(=O)N[C@H](C(N)=O)[C@@H](C)O)NC(=O)[C@@H]5CCCN5C(=O)[C@H](CC(N)=O)NC1=O)NC(=O)[C@@H]1CCCN1C(=O)[C@H](CC(=O)O)NC(=O)[C@H](CSSC[C@H](N)C(=O)N[C@@H](C(C)C)C(=O)N[C@@H](CCCNC(=N)N)C(=O)N[C@@H](CC(C)C)C(=O)N[C@@H](Cc1c[nH]cn1)C(=O)N[C@@H](CCC(=O)O)C(=O)N[C@@H](CO)C(=O)N4)NC3=O)C(=O)N[C@@H](Cc1ccc(O)cc1)C(=O)N[C@H]1CSSC[C@H](NC(=O)[C@H](Cc3ccccc3)NC(=O)[C@H](C)NC(=O)[C@H](CC(N)=O)NC(=O)[C@H](Cc3ccccc3)NC(=O)[C@H](Cc3ccccc3)NC(=O)[C@H](CCCNC(=N)N)NC1=O)C(=O)N[C@@H](Cc1ccc(O)cc1)C(=O)N2 [Agouti Related Protein (87-132)-Amide (Human)] | 2.4% | 0.9 fold | 0.5 ± 0.20 pmol/well |  |  |  | Fold Induction cAMP ([1]; Table 2, 10 nM): 2.4* fold; ATP (nM ATP/well) ([2]; Table 2, 10 nM, 4 days): 11.2 ± 1.7 nM ATP/well; Fold Induction ATP ([2]; Table 2, 10 nM, 4 days): 1.4* fold
CSCC[C@H](NC(=O)[C@H](Cc1ccc(O)cc1)NC(=O)[C@@H](N)CC(=O)O)C(=O)NCC(=O)N[C@@H](Cc1c[nH]c2ccccc12)C(=O)N[C@@H](CCSC)C(=O)N[C@@H](CC(=O)O)C(=O)N[C@@H](Cc1ccccc1)C(N)=O [Cholecystokinin Octapeptide [CCK(26-33)]] | 3.2% |  |  |  |  |  | cAMP (pmol/well) [1, 4]: 0.27 ± 0.06 pmol/well; ATP (nM ATP/well) ([2]; Table 2, 10 nM, 4 days): 9.8 ± 0.4 nM ATP/well
NC(=O)CC[C@@H]1NC(=O)[C@H](Cc2ccccc2)NC(=O)[C@H](Cc2ccc(O)cc2)NC(=O)CCSSC[C@@H](C(=O)N2CCC[C@H]2C(=O)N[C@H](CCCN=C(N)N)C(=O)NCC(N)=O)NC(=O)[C@H](CC(N)=O)NC1=O [DDAVP] | 4.6% | 1.8 fold | 0.27 ± 0.02 pmol/well | 11.5 ± 1.4 nM ATP/well | 1.5* fold |  | Fold Induction cAMP ([1]; Table 2, 10 nM): 1.9*** (10 nM) fold
C=C[C@@]1(C)CC(=O)[C@]2(O)[C@@]3(C)[C@@H](O)CCC(C)(C)[C@@H]3[C@H](O)[C@H](OC(C)=O)[C@@]2(C)O1 [Forskolin, forskolin] |  |  |  |  |  |  | fold induction at 10 µM (Adult neural stem cells; Mus musculus, Neural stem cell, read-out: Fold Induction (Doublecortin-positive cells)): 2.5; % Doublecortin-positive cells (Adult neural stem cells; 10 μM): 6.3%; fold induction at 1 µM ([1]; Mus musculus, Neural stem cell, 0.25 h, read-out: Fold Induction cAMP): 3.1; cAMP (pmol/well) ([1]; Table 1, 1000 nM, after 15 minutes): 0.07 ± 0.01 pmol/well; fold induction at 1 µM ([2]; Mus musculus, Neural stem cell, 96 h, read-out: Fold Induction ATP): 1.1; ATP (nM ATP/well) ([2]; Table 1, 1000 nM, 4 days in culture): 10.4 ± 2.4 nM ATP/well
CNC(=O)[C@H]1O[C@@H](n2cnc3c(N)ncnc32)[C@H](O)[C@@H]1O [MECA] |  |  |  | 7.4 ± 0.7 nM ATP/well | 1.6** fold |  | % Doublecortin-positive cells (Adult neural stem cells; 10 μM): 2.2%; Fold Induction (Doublecortin-positive cells) (Adult neural stem cells; 10 μM): 0.9 fold; cAMP (pmol/well) [1, 4]: 3.89 ± 1.00 pmol/well; Fold Induction cAMP ([1]; Table 2, 100 nM): 2.1* fold
CC(C)C[C@H](NC(=O)[C@H](CCCCN)NC(=O)CNC(=O)[C@H](CC(C)C)NC(=O)[C@@H](NC(=O)[C@@H]1CSSC[C@H](N)C(=O)N[C@@H](CO)C(=O)N[C@@H](CC(N)=O)C(=O)N[C@@H](CC(C)C)C(=O)N[C@@H](CO)C(=O)N[C@@H]([C@@H](C)O)C(=O)N1)C(C)C)C(=O)N[C@@H](CO)C(=O)N[C@@H](CCC(N)=O)C(=O)N[C@@H](CCC(=O)O)C(=O)N[C@@H](CC(C)C)C(=O)N[C@@H](Cc1c[nH]cn1)C(=O)N[C@@H](CCCCN)C(=O)N[C@@H](CC(C)C)C(=O)N[C@@H](CCC(N)=O)C(=O)N[C@H](C(=O)N[C@@H](Cc1ccc(O)cc1)C(=O)N1CCC[C@H]1C(=O)N[C@@H](CCCNC(=N)N)C(=O)N[C@H](C(=O)N[C@@H](CC(N)=O)C(=O)N[C@H](C(=O)NCC(=O)N[C@@H](CO)C(=O)NCC(=O)N[C@H](C(=O)N1CCC[C@H]1C(N)=O)[C@@H](C)O)[C@@H](C)O)[C@@H](C)O)[C@@H](C)O [Thyrocalcitonin (Salmon)] | 3.9% | 1.5 fold |  |  |  | 0.63 ± 0.23 pmol/well | Fold Induction cAMP ([1]; Table 2, 1 nM): 3.8* (1 nM) fold; ATP (nM ATP/well) ([2]; Table 2, 1 nM, 4 days): 9.2 ± 0.7 nM ATP/well; Fold Induction ATP ([2]; Table 2, 1 nM, 4 days): 1.3* fold
N=C(N)NCCC[C@@H](N)C(=O)N[C@@H](CCCNC(=N)N)C(=O)N1CCC[C@H]1C(=O)N1C[C@H](O)C[C@H]1C(=O)NCC(=O)N[C@H](C(=O)N[C@@H](CO)C(=O)N[C@@H](C(=O)N1[C@H](C(=O)N[C@@H](CCCNC(=N)N)C(=O)O)C[C@@H]2CCCC[C@@H]21)C1Cc2ccccc2C1)C1Cc2ccccc2C1 [[D-Arg0, Hyp3, Ig15, D-Ig17, Oic8]-Bradykinin] | 3.6% |  | 0.17 ± 0.02 pmol/well | 13.1 ± 2.1 nM ATP/well |  |  | 
CC(C)C[C@H](NC(=O)[C@@H](Cc1c[nH]c2ccccc12)NC(=O)[C@H](Cc1ccc(O)cc1)NC(=O)[C@H](CO)NC(=O)[C@@H](Cc1c[nH]c2ccccc12)NC(=O)[C@@H](Cc1ccccc1)NC(=O)[C@H]1CCC(=O)N1)C(=O)N[C@@H](CCCNC(=N)N)C(=O)N1CCC[C@H]1C(=O)NCC(N)=O [[D-pGlu1,D-Phe2, D-Trp3,6]-LH-RH] ([d(pGlu)][dF][dW]SY[dW]LRPG-NH2; C-terminus assumed) | 3.4% |  |  | 11.1 ± 0.4 nM ATP/well |  | 0.07 ± 0.02 pmol/well | 
N=C(N)NCCC[C@H](N)C(=O)N1CCC[C@H]1C(=O)N1CCC[C@H]1C(=O)NCC(=O)N[C@@H](Cc1ccccc1)C(=O)N[C@@H](CO)C(=O)N1CCC[C@H]1C(=O)N[C@@H](Cc1ccccc1)C(=O)O [[Des-Arg9]-Bradykinin] | 4.5% | 1.8 fold |  |  |  | 0.06 ± 0.01 pmol/well | Fold Induction cAMP ([1]; Table 2, 1 nM): 1.7*** fold; ATP (nM ATP/well) ([2]; Table 2, 1 nM, 4 days): 10.4 ± 1.0 nM ATP/well; Fold Induction ATP ([2]; Table 2, 1 nM, 4 days): 1.2* fold
CC(C)C[C@H](NC(=O)[C@H](Cc1ccccc1)NC(=O)CNC(=O)CNC(=O)[C@@H](N)Cc1ccc(O)cc1)C(=O)N[C@@H](CCCNC(=N)N)C(=O)N[C@@H](CCCCN)C(=O)N[C@@H](Cc1ccc(O)cc1)C(=O)N1CCC[C@H]1C(=O)N[C@@H](CCCCN)C(=O)O [α-Neo-Endorphin] (H-YGGFLRKYPK-OH; N-terminus and C-terminus assumed) | 4.0% | 1.6 fold |  | 13.8 ± 2.1 nM ATP/well | 1.8** fold | 0.36 ± 0.09 pmol/well | Fold Induction cAMP ([1]; Table 2, 1 nM): 1.7* (1 nM) fold
CSCC[C@H](NC(=O)[C@H](CC(C)C)NC(=O)CNC(=O)[C@@H](NC(=O)[C@H](Cc1ccccc1)NC(=O)[C@H](CO)NC(=O)[C@H](CC(=O)O)NC(=O)[C@@H](NC(=O)[C@H](CCCCN)NC(=O)[C@@H](N)Cc1c[nH]cn1)[C@@H](C)O)C(C)C)C(N)=O [α-Neurokinin] | 4.6% |  | 0.11 ± 0.03 pmol/well | 11.0 ± 1.4 nM ATP/well |  |  | 
CSCC[C@H](NC(=O)[C@H](CCCNC(=N)N)NC(=O)[C@H](Cc1ccc(O)cc1)NC(=O)[C@@H]1CCCN1C(=O)CNC(=O)[C@H](CCC(=O)O)NC(=O)[C@H](CC(=O)O)NC(=O)[C@H](CCCCN)NC(=O)[C@H](CCCCN)NC(=O)[C@H](CCC(=O)O)NC(=O)[C@H](C)N)C(=O)N[C@@H](CCC(=O)O)C(=O)N[C@@H](Cc1c[nH]cn1)C(=O)N[C@@H](Cc1ccccc1)C(=O)N[C@@H](CCCNC(=N)N)C(=O)N[C@@H](Cc1c[nH]c2ccccc12)C(=O)NCC(=O)N[C@@H](CO)C(=O)N1CCC[C@H]1C(=O)N1CCC[C@H]1C(=O)N[C@@H](CCCCN)C(=O)N[C@@H](CC(=O)O)C(=O)O [β-MSH, β-Melanocyte Stimulating Hormone] | 4.1% |  | 0.23 ± 0.02 pmol/well | 13.6 ± 1.6 nM ATP/well |  |  | 
KYGQVPMCDAGEQCAVRKGARIGKLCDCPRGTSCNSFLLKCL (disulfide 8-26, 14-34, 28-41) [CART (61-102)] | 4.7% | 1.8 fold | 0.13 ± 0.02 pmol/well | 8.3 ± 0.4 nM ATP/well | 1.2** fold |  | Fold Induction cAMP ([1]; Table 2, 10 nM): 1.2* (10 nM) fold
